The text below walks through data of patent US5182290A (Neurogen Corporation, priority 1991, dated 1993).

Entries after “also recorded” stand apart in the source; their conditions may differ.

The target in one assay is GABAa receptor. The assay is described as follows: Inhibition of 3H-RO15-1788 (3H-Flumazenil) binding to rat cortical tissue (GABAa receptor assay). Here is the method: Assays are carried out as described in Thomas and Tallman (J. Bio. Chem. 156: 9838-9842, J. Neurosci. 3:433-440, 1983). Rat cortical tissue is dissected and homogenized in 25 volumes (w/v) of 0.05M Tris HCl buffer (pH 7.4 at 4° C.). The tissue homogenate is centrifuged in the cold (4° C.) at 20,000×g for 20 minutes. The supernatant is decanted and the pellet is rehomogenized in the same volume of buffer and again centrifuged at 20,000× g. The supernatant is decanted and the pellet is frozen at -20° C. overnight. The pellet is then thawed and rehomogenized in 25 volume (original wt/vol) of buffer and the procedure is carried out twice. The pellet is finally resuspended in 50 volumes (w/vol of 0.05M Tris HCl buffer (pH 7.4 at […]).
Incubations contain […] of radioligand 0.5 nM (^3 H-RO15-1788[^3 H-Flumazenil] specific activity 80 Ci/mmol), drug or blocker and buffer to a total volume of […]. Incubations are carried for 30 min at 4° C. then are rapidly filtered through GFB filters to separate free and bound ligand. Filters are washed twice with fresh 0.05M Tris HCl buffer (pH 7.4 at 4° C.) and counted in a liquid scintillation counter. 1.0 mM diazepam is added to some tubes to determine nonspecific binding. Data are collected in triplicate determinations, averaged and % inhibition of total specific binding is calculated. Total Specific Binding=Total-Nonspecific. In some cases, the amounts of unlabeled drugs is varied and total displacement curves of binding are carried out. Data are converted to a form for the calculation of IC50 and Hill Coefficient (nH).

In assay [1] the test system is benzodiazepine binding site. Conditions: result in words; Tallman et al., 1978; cited from earlier work.
The mark [2] stands for this setting: 3H-RO15-1788 0.5 nM, rat cortical tissue, 30 min at 4° C.

Usually IC50 stands for the point on the concentration scale where inhibition reaches its midpoint. Low readings indicate higher potency, high ones lower potency. `Cn1c(=O)c2nc(-c3ccccc3)oc2c2ccccc21` [5-methyl-2-phenyl-oxazolo[4,5-c]quinolin-4(5H)-one] registered an IC50 on GABAa receptor (prior art compound, assay described above, unit inferred) of approximately 50000 nM. Further, in the assay on GABAa receptor (prior art compound, result in words), the “activity in the assay” value was “no activity; also recorded: inactive”.
Turning to `CN1CCc2cc3c(cc2[C@H]1[C@@H]1OC(=O)c2c1ccc1c2OCO1)OCO3` [(+) bicuculline], the “Blockade of enhancement of benzodiazepine binding by GABA agonists” value in assay [1] is listed as “blocked”.
Take `CN1CCc2cc3c(cc2[C@@H]1[C@H]1OC(=O)c2c1ccc1c2OCO1)OCO3` [(-) bicuculline]: the “Blockade of enhancement of benzodiazepine binding by GABA agonists” value in assay [1] was “much less active”.
As to `COc1cccc(-c2nc3c(=O)[nH]c4ccccc4c3o2)c1` [Compound 1, 2-(3-Methoxyphenyl)-oxazolo[4,5-c]quinolin-4(5H)-one], the IC50 at GABAa receptor (setting [2]) is 600 nM.
On the same count and under the same terms, with `O=c1[nH]c2ccccc2c2oc(-c3ccccc3)nc12` [Compound 2, 2-Phenyl-oxazolo[4,5-c]quinolin-4(5H)-one] the figure was 95 nM; with `COc1ccc(-c2nc3c(=O)[nH]c4ccccc4c3o2)cc1` [Compound 4, 2-(4-Methoxyphenyl)-oxazolo[4,5-c]quinolin-4(5H)-one], 125 nM.
